Values after ≈ are worked out from the molar mass of the structure shown.
How the values were obtained:
Assay in all cases: in vitro antibacterial evaluation, MIC by broth dilution
Type in all cases: cell-based
Streptococcus sp. = conditions: broth dilution, 18 hours at 35° C.; for MIC Streptococcus pneumoniae (ATCC 6301): strain ATCC 6301; for MIC Streptococcus pneumoniae (GC 1894): strain GC 1894; for MIC Streptococcus pyogenes (GC 4563): strain GC 4563; for MIC Streptococcus agalactiae (GC 4564): strain GC 4564; for MIC Streptococcus pneumoniae (GC 4565): strain GC 4565
Procedure, shortened: (§1)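 Test organisms, which included recent clinical isolates resistant to methicillin, penicillin and/or vancomycin, were inoculated at 5×10^5 CFU/mL into Muller-Hinton II […] containing antibiotic at 64-0.06 μg/mL. Minimum inhibitory concentrations were then read as the lowest level inhibiting growth.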

Escherichia coli = system: Escherichia coli
Procedure, shortened: as §1

Enterococcus sp. = conditions: broth dilution, 18 hours at 35° C.; for MIC Enterococcus faecalis (ATCC 29212): strain ATCC 29212; for MIC Enterococcus faecalis (GC 2242): strain GC 2242; for MIC Enterococcus faecium (GC 2243): strain GC 2243; for MIC Enterococcus faecalis (GC 2691): strain GC 2691; for MIC Enterococcus faecalis (GC 3059): strain GC 3059; for MIC Enterococcus faecalis (GC 4552): strain GC 4552; for MIC Enterococcus faecalis (GC 4553): strain GC 4553; for MIC Enterococcus faecalis (GC 4554): strain GC 4554; for MIC Enterococcus faecium (GC 4556): strain GC 4556; for MIC Enterococcus faecium (GC 4557): strain GC 4557; for MIC Enterococcus avium (GC 4558): strain GC 4558; for MIC Enterococcus faecalis (GC 6189): strain GC 6189
Procedure, shortened: as §1

Staphylococcus sp. = conditions: broth dilution, 18 hours at 35° C.; for MIC Staphylococcus aureus (GC 1131): strain GC 1131
Procedure, shortened: as §1

CC(c1ccccc1)C1NC(=O)CNC(=O)C(CO)NC(=O)C(C(O)C2CNC(=N)N2C2OC(CO)C(O)C(O)C2O)NC(=O)C(C(O)C2CNC(=N)N2)NC(=O)C(Cc2ccc(OC3OC(CO)C(OC4OC5COC(c6ccc(Oc7ccc(C(C)(C)C)cc7)cc6)OC5C(O)C4O)C(O)C3O)cc2)NC1=O (centres unmarked) [Example 181]
MIC Streptococcus pneumoniae (ATCC 6301) (Streptococcus sp.; inoculum 5×10^5 CFU/mL): <0.06 µg/mL
MIC Streptococcus pneumoniae (GC 1894) (Streptococcus sp.; inoculum 5×10^5 CFU/mL): <0.06 µg/mL
MIC Streptococcus pyogenes (GC 4563) (Streptococcus sp.; inoculum 5×10^5 CFU/mL): 0.5 µg/mL (≈ 0.326 µM)
MIC Streptococcus agalactiae (GC 4564) (Streptococcus sp.; inoculum 5×10^5 CFU/mL): <0.06 µg/mL
MIC Streptococcus pneumoniae (GC 4565) (Streptococcus sp.; inoculum 5×10^5 CFU/mL): <0.06 µg/mL
MIC Streptococcus pneumoniae (ATCC 6301) (Streptococcus sp.): <0.06 µg/mL
MIC Streptococcus pneumoniae (GC 1894) (Streptococcus sp.): <0.06 µg/mL
MIC Streptococcus pyogenes (GC 4563) (Streptococcus sp.): 0.5 µg/mL (≈ 0.326 µM)
MIC Streptococcus agalactiae (GC 4564) (Streptococcus sp.): <0.06 µg/mL
MIC Streptococcus pneumoniae (GC 4565) (Streptococcus sp.): <0.06 µg/mL
MIC Escherichia coli (ATCC 25922) (Escherichia coli; strain ATCC 25922, 18 hours at 35° C.): >64 µg/mL
MIC Escherichia coli (GC 4559) (Escherichia coli; strain GC 4559, 18 hours at 35° C.): >64 µg/mL
MIC Escherichia coli (GC 4560) (Escherichia coli; strain GC 4560, 18 hours at 35° C.): 16 µg/mL (≈ 10.4 µM)
MIC Enterococcus faecalis (ATCC 29212) (Enterococcus sp.; inoculum 5×10^5 CFU/mL): 2 µg/mL (≈ 1.31 µM)
MIC Enterococcus faecalis (GC 2242) (Enterococcus sp.; inoculum 5×10^5 CFU/mL): 2 µg/mL (≈ 1.31 µM)
MIC Enterococcus faecium (GC 2243) (Enterococcus sp.; inoculum 5×10^5 CFU/mL): 2 µg/mL (≈ 1.31 µM)
MIC Enterococcus faecalis (GC 2691) (Enterococcus sp.; inoculum 5×10^5 CFU/mL): 4 µg/mL (≈ 2.61 µM)
MIC Enterococcus faecalis (GC 3059) (Enterococcus sp.; inoculum 5×10^5 CFU/mL): 4 µg/mL (≈ 2.61 µM)
MIC Enterococcus faecalis (GC 4552) (Enterococcus sp.; inoculum 5×10^5 CFU/mL): 2 µg/mL (≈ 1.31 µM)
MIC Enterococcus faecalis (GC 4553) (Enterococcus sp.; inoculum 5×10^5 CFU/mL): 1 µg/mL (≈ 0.653 µM)
MIC Enterococcus faecalis (GC 4554) (Enterococcus sp.; inoculum 5×10^5 CFU/mL): 2 µg/mL (≈ 1.31 µM)
MIC Enterococcus faecium (GC 4556) (Enterococcus sp.; inoculum 5×10^5 CFU/mL): 4 µg/mL (≈ 2.61 µM)
MIC Enterococcus faecium (GC 4557) (Enterococcus sp.; inoculum 5×10^5 CFU/mL): 4 µg/mL (≈ 2.61 µM)
MIC Enterococcus avium (GC 4558) (Enterococcus sp.; inoculum 5×10^5 CFU/mL): 4 µg/mL (≈ 2.61 µM)
MIC Enterococcus faecalis (GC 6189) (Enterococcus sp.; inoculum 5×10^5 CFU/mL): 2 µg/mL (≈ 1.31 µM)
MIC Enterococcus faecalis (ATCC 29212) (Enterococcus sp.): 2 µg/mL (≈ 1.31 µM)
MIC Enterococcus faecalis (GC 2242) (Enterococcus sp.): 2 µg/mL (≈ 1.31 µM)
MIC Enterococcus faecium (GC 2243) (Enterococcus sp.): 2 µg/mL (≈ 1.31 µM)
MIC Enterococcus faecalis (GC 2691) (Enterococcus sp.): 4 µg/mL (≈ 2.61 µM)
MIC Enterococcus faecalis (GC 3059) (Enterococcus sp.): 4 µg/mL (≈ 2.61 µM)
MIC Enterococcus faecalis (GC 4552) (Enterococcus sp.): 2 µg/mL (≈ 1.31 µM)
MIC Enterococcus faecalis (GC 4553) (Enterococcus sp.): 1 µg/mL (≈ 0.653 µM)
MIC Enterococcus faecalis (GC 4554) (Enterococcus sp.): 2 µg/mL (≈ 1.31 µM)
MIC Enterococcus faecium (GC 4556) (Enterococcus sp.): 4 µg/mL (≈ 2.61 µM)
MIC Enterococcus faecium (GC 4557) (Enterococcus sp.): 4 µg/mL (≈ 2.61 µM)
MIC Enterococcus avium (GC 4558) (Enterococcus sp.): 4 µg/mL (≈ 2.61 µM)
MIC Enterococcus faecalis (GC 6189) (Enterococcus sp.): 2 µg/mL (≈ 1.31 µM)
MIC Staphylococcus aureus (GC 1131) (Staphylococcus sp.; inoculum 5×10^5 CFU/mL): 4 µg/mL (≈ 2.61 µM)
MIC Staphylococcus aureus (ATCC 29213) (Staphylococcus sp.; strain ATCC 29213): 4 µg/mL (≈ 2.61 µM)
MIC Staphylococcus aureus (GC 1131) (Staphylococcus sp.): 4 µg/mL (≈ 2.61 µM)
MIC Staphylococcus aureus (GC 3051) (Staphylococcus sp.; strain GC 3051): 4 µg/mL (≈ 2.61 µM)
MIC Staphylococcus aureus (GC 3053) (Staphylococcus sp.; strain GC 3053): 4 µg/mL (≈ 2.61 µM)
MIC Staphylococcus aureus (GC 4541) (Staphylococcus sp.; strain GC 4541): 4 µg/mL (≈ 2.61 µM)
MIC Staphylococcus aureus (GC 4542) (Staphylococcus sp.; strain GC 4542): 4 µg/mL (≈ 2.61 µM)
MIC Staphylococcus aureus (GC 4544) (Staphylococcus sp.; strain GC 4544): 4 µg/mL (≈ 2.61 µM)
MIC Staphylococcus aureus (GC 4545) (Staphylococcus sp.; strain GC 4545): 4 µg/mL (≈ 2.61 µM)
MIC Staphylococcus aureus-SMITH (GC 4543) (Staphylococcus sp.; strain GC 4543): 4 µg/mL (≈ 2.61 µM)
MIC Staphylococcus haemolyticus (GC 4546) (Staphylococcus sp.; strain GC 4546): 8 µg/mL (≈ 5.22 µM)
MIC Coagulase Negative Staphylococcus (GC 4547) (Staphylococcus sp.; strain GC 4547): 8 µg/mL (≈ 5.22 µM)
MIC Coagulase Negative Staphylococcus (GC 4548) (Staphylococcus sp.; strain GC 4548): 2 µg/mL (≈ 1.31 µM)
MIC Coagulase Negative Staphylococcus (GC 4549) (Staphylococcus sp.; strain GC 4549): 1 µg/mL (≈ 0.653 µM)
MIC Coagulase Negative Staphylococcus (GC 4551) (Staphylococcus sp.; strain GC 4551): 2 µg/mL (≈ 1.31 µM)
MIC Coagulase Negative Staphylococcus (GC 6257) (Staphylococcus sp.; strain GC 6257): 2 µg/mL (≈ 1.31 µM)

From US6914045B2, “Glycopeptide antibiotics” (Wyeth Holdings Corporation, priority 2001, dated 2005)
